Patent US20040106802A1, “Novel compounds and therapeutic uses thereof” (TORRENT PHARMACEUTICALS LTD., priority 2002, published 2004)
Where a name gives a salt, the structure may show the parent alone.

target: T1, Porcine DPP-IV (Sus scrofa, UniProt P22411); assay: Assay of DPP-IV enzyme inhibitory activity (spectrophotometric, Gly-Pro-pNA cleavage); assay type: biochemical; conditions: Porcine DPP-IV, Gly-Pro-pNA substrate, 30° C.; mean ± SD of three experiments except compound Nos. 133 & 139; read-out: IC50 (μM) Mean ± SD, inhibitory activity on DPP-IV enzyme activity
T1 construct: purchased Sigma-Aldrich Germany
T1 sequence (P22411 whole entry): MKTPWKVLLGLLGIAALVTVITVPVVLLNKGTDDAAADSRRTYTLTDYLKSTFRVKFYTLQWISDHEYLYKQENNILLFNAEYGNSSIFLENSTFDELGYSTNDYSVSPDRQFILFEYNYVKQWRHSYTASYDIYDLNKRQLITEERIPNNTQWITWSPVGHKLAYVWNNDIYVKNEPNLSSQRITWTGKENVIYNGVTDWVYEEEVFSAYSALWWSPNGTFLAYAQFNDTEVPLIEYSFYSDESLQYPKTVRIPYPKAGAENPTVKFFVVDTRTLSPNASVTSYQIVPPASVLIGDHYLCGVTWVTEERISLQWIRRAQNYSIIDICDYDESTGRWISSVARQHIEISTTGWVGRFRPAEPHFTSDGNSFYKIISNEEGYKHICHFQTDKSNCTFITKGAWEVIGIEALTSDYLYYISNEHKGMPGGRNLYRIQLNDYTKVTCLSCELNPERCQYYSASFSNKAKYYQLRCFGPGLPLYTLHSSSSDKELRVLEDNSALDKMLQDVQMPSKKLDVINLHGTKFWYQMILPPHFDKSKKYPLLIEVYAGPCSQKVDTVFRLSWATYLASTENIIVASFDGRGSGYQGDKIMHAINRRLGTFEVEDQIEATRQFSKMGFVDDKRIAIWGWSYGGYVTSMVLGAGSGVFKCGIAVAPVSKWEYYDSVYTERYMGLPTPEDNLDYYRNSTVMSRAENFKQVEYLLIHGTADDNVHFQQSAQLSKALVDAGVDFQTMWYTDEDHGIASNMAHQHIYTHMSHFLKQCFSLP
Method: Assay of DPP-IV Enzyme Inhibitory Activity.
The assay method is a modified method (as described by Welch et al, 1998) based on spectrophotometric determination of the product formed by penultimate proline cleaving activity of the enzyme.
Assay protocol involves incubation of the enzyme dipeptidyl peptidase IV with the test substance at 30° C. for 30 min followed by addition of this reaction mixture to the substrate Gly-Pro-pNA that was equilibrated at 30° C. for 2 min. The enzyme cleaves the substrate at penultimate proline and releases p-nitroanilide, the optical density of which is measured at 385 nm. The formation of p-nitroanilide will be reduced in the presence of inhibitor. […] The activity of molecule is expressed in terms of % inhibition. At least three different concentrations were tried out for each of the test substances. The percentage inhibitions for each of the concentrations were plotted and an IC50 of the test compound was worked out. The enzyme inhibitory activity of different test compounds were compared based on the IC50 values.
The percentage inhibition % I, is calculated using the formula:
% I=[(1−vi/v0)]*100 where vi and v0 are the Vmax values with and without the test substance, respectively.
Substrate solution: 0.5 mM in 45 mM phosphate buffer
Substrate used: Gly-Pro-p-nitroanilide (Source: Sigma-Aldrich Co. Germany)
3.288 mg substrate in 1 ml 45 mM phosphate buffer was prepared as stock solution. 0.25 ml of this stock solution was diluted to 5 ml to get 0.5 mM substrate solution (90 μl to be added in each well). The stock solution of the substrate was used within three days of preparation.
Enzyme solution: Porcine DPP-IV (Sigma-Aldrich Germany) was used throughout the study. 0.4 mU in 80 μl of Tris. HCl buffer was prepared. Fresh solutions were prepared everyday for the assays.
Various concentrations of inhibitor were used: 0.391 μM, 0.781 μM, and 3.125 μM. Solutions of inhibitor were prepared and used on the same day.
280 μl of enzyme solution (0.4-mU/80 μl in Tris HCl buffer) was added to the eppendorf containing 70 μl solution of inhibitor or vehicle and mixed. This reaction mixture was incubated for 30 min at 30° C. The 96 well plate containing substrate solution was thermally equilibrated in the spectrophotometer for 2 min at 30° C. Later 100 μl of the enzyme-inhibitor pre-incubation solution was added to respective wells in a 96 well plate. Each concentration of the inhibitor was tested in triplicates.
The rate of change in UV absorbance (in presence of various concentrations of the inhibitor) was measured at 385 nm, with respect to wells containing only 0.5 mM substrate in 45 mM phosphate buffer as blank at every 10 min for 2 hours after adding enzyme-inhibitor mixture to wells containing substrate solution.

Row | SMILES | IC50 [µM]
1 | COC(=O)NN(CC(=O)N1CSCC1C#N)C1CCN(CC(=O)Nc2ccc(Cl)cn2)CC1 (centres unmarked) [compound 133, 3-[1-oxo-2-(1-(1-(2-oxo-2-(5-chloropyridin-2-yl)aminoethyl)piperidine-4-yl)-2-methoxycarbonyl)hydrazino]ethyl-4-cyanothiazolidine, trihydrochloride] | 40.4 ± 6.4
2 | CCN(CC)NCC(=O)N1CSCC1C#N (centres unmarked) [Compound No. 13, 1-[1-Oxo-2-((2,2-diethyl)-hydrazino)]ethyl-2-cyano thiazolidine] | 57.1 ± 3.76
3 | CN(CC(=O)N1CSCC1C#N)NC1CCN(S(=O)(=O)c2ccc(Cl)cc2)CC1 (centres unmarked) [Compound No. 71, 3-[1-Oxo-2-[1-methyl-2-(1-(4-chlorophenylsulphonyl)-piperidin-4-yl)]-hydrazino]ethyl-4-cyanothiazolidine] | 86.2 ± 5.3
4 | N#CC1CCCN1C(=O)CNN (centres unmarked) [Compound No. 4, 1-[1-Oxo-2-(1-hydrazino)]ethyl-2-cyano pyrrolidine trifluoroacetate] | 88.6 ± 18.1
5 | N#CC1CSCN1C(=O)CNN (centres unmarked) [Compound No. 15, 3-[1-Oxo-2-(1-hydrazino)]ethyl-4-cyano thiazolidine trifluoroacetate] | 41.9 ± 11.6
6 | N#CC1CSCN1C(=O)CN(N)C1CCNCC1 (centres unmarked) [Compound No. 72, 3-[1-Oxo-2-(1-(4-piperidinyl) hydrazino)]ethyl-4-cyanothiazolidine bis trifluoroacetate] | 12.1 ± 0.13
7 | CC(C)NN(CC(=O)N1CSCC1C#N)C1CCC(NS(C)(=O)=O)CC1 (centres unmarked) [Compound No. 84, 3-[1-Oxo-2-(1-(1-methanesulphonylamino-4-cyclohexyl)-2-isopropyl) hydrazino]ethyl-4-cyanothiazolidine trifluoroacetate] | 5.78 ± 0.18
8 | CC(C)(C)OC(=O)NNCC(=O)N1COCC1C#N (centres unmarked) [compound 147, 3-[-oxo-2-(2-ter-butyloxycarbonyl) hydrazino]ethyl-4-cyanooxazolidine] | 150 ± 43
9 | N#CC1CSCN1C(=O)CN(N)C1CCN(CC(=O)NC2CC2)CC1 (single isomer, unassigned) [compound 146, 3-[1-oxo-2-(1-(1-(2-cyclopropyl-1-yl)aminoethyl)piperidin-4-yl)) hydrazino]ethyl-4-cyano thiazolidine, dihydrochloride] | 217 ± 9.07
10 | CC(C)NN(CC(=O)N1CSCC1C#N)C1CCCCC1 (centres unmarked) [Compound No. 36, 3-[1-Oxo-2-(1-cyclohexyl-2-isopropyl) hydrazino]ethyl-4-cyanothiazolidine hydrochloride] | 23.3 ± 2.54
11 | CC1CCC(NNCC(=O)N2CCCC2C#N)CC1 (centres unmarked) [Compound No. 26, 1-[1-Oxo-2-((4-Methyl)cyclohexyl)hydrazino)]ethyl-2-cyano pyrrolidine trifluoroacetate] | 10 ± 0.79
12 | N#CC1CSCN1C(=O)CN(N)Cc1ccc([N+](=O)[O-])cc1 (centres unmarked) [Compound No. 17, 3-[1-Oxo-2-((1-(4-nitrophenylmethyl))hydrazino)]ethyl-4-cyano thiazolidine trifluoroacetate] | 35.8 ± 1.03
13 | CC1CCC(NNCC(=O)N2CCCC2C#N)CC1 (centres unmarked) [Compound No. 37, 1-[1-Oxo-2-(4-methylcyclohexyl)hydrazino]ethyl-2-cyanopyrrolidine trifluoroacetate] | 28.3 ± 4.6

Now those with a lower IC50, led by results:

Row | IC50 [µM] | SMILES
14 | 4.77 ± 0.41 | N#CC1CSCN1C(=O)CN(N)C1CCN(Cc2cccnc2)CC1 (centres unmarked) [Compound No. 57, 3-[1-Oxo-2-(1-(1-(3-pyridinemethyl)-4-piperidinyl) hydrazino)]ethyl-4-cyanothiazolidine tris trifluoroacetate]
15 | 3.5 ± 0.06 | CC(C)N1CCC(N(N)CC(=O)N2CSCC2C#N)CC1 (centres unmarked) [Compound No. 51, 3-[1-Oxo-2-(1-isopropyl-4-piperidinyl) hydrazino)]ethyl-4-cyano thiazolidine trifluoroacetate]
16 | 2.86 ± 0.18 | CC1CCC(N(CC(=O)N2CSCC2C#N)NC(C)C)CC1 (centres unmarked) [Compound No. 44, 3-[1-Oxo-2-(1-(4-methylcyclohexyl)-2-isopropyl)hydrazino]ethyl-4-cyanothiazolidine trifluoroacetate]
17 | 2.7 ± 0.16 | Cc1ccc(S(=O)(=O)N2CCC(N(N)CC(=O)N3CSCC3C#N)CC2)cc1 (centres unmarked) [Compound No. 55, 3-[1-Oxo-2-(1-(1-(4-methylphenylsulphonyl)-4-piperidinyl)-hydrazino)]ethyl-4-cyanothiazolidine trifluoroacetate]
18 | 2.27 ± 0.19 | CCNN(CC(=O)N1CSCC1C#N)C(C)C (centres unmarked) [Compound No. 80, 3-[1-Oxo-2-(1-isopropyl-2-ethyl)-hydrazino]-ethyl-4-cyanothiazolidine trifluoroacetate]
19 | 1.63 ± 0.15 | N#CC1CSCN1C(=O)CN(N)C1CCN(Cc2ccccc2)CC1 (centres unmarked) [Compound No. 81, 3-[1-Oxo-2-[1-(1-phenylmethyl-piperidin-4-yl)]-hydrazino]-ethyl-4-cyanothiazolidine trifluoroacetate]
20 | 1.54 ± 0.34 | N#CC1CSCN1C(=O)CN(N)C1CCN(S(=O)(=O)c2ccc(Cl)cc2)CC1 (centres unmarked) [Compound No. 62, 3-[1-Oxo-2-[1-(1-(4-chlorophenylsulphonyl)-piperidin-4-yl)]hydrazino]ethyl-4-cyanothiazolidine trifluoroacetate]
21 | 1.14 ± 0.09 | CC(C)(C)C1CCC(N(N)CC(=O)N2CSCC2C#N)CC1 (centres unmarked) [Compound No. 47, 3-[1-Oxo-2-(1-(4-tert-butylcyclohexyl)hydrazino)]ethyl-4-cyanothiazolidine trifluoro acetate]
22 | 1.06 ± 0.3 | N#CC1CSCN1C(=O)CN(N)C1CCC(NCC(=O)Nc2ccc(Cl)cc2)CC1 (centres unmarked) [Compound No. 113, 3-[1-oxo-2-[1-(4-(2-oxo-2-(4-chlorophenyl)aminoethyl)aminocyclohex-1-yl)]hydrazino]ethyl-4-cyanothiazolidine bis-trifluoroacetate]
23 | 1.03 ± 0.035 | COCCNC(=O)CN1CCC(N(N)CC(=O)N2CSCC2C#N)CC1 (centres unmarked) [compound 135, 3-[1-oxo-2-(1-(1-(2-oxo-2-(2-methoxyethyl)aminoethyl)piperidin-4-yl))hydrazino]ethyl-4-cyanothiazolidine, bis-trifluoroacetate]
24 | 0.92 ± 0.03 | CC1CC(N(N)CC(=O)N2CSCC2C#N)CC(C)(C)C1 (centres unmarked) [Compound No. 79, 3-[1-Oxo-2-(1-(3,3,5-trimethylcyclohexyl)-hydrazino)]ethyl-4-cyanothiazolidine trifluoroacetate]
25 | 0.69 ± 0.03 | CCCC1CCC(N(N)CC(=O)N2CSCC2C#N)CC1 (centres unmarked) [Compound No. 60, 3-[1-Oxo-2-(1-(4-npropylcyclohexyl) hydrazino)]ethyl-4-cyanothiazolidine trifluoro acetate]
26 | 0.676 ± 0.07 | N#CC1CSCN1C(=O)CN(N)C1CCN(CCOc2ccccc2)CC1 (centres unmarked) [compound 123]
27 | 0.525 ± 0.098 | N#CC1CSCN1C(=O)CN(N)C1CCN(CC(=O)N2CCOCC2)CC1 (centres unmarked) [Compound No. 107, 3-[1-oxo-2-[1-(1-(−2-oxo-2(morpholin-4-yl)ethyl)piperidin-4-yl)]hydrazino]ethyl-4-cyanothiazolidine bis-trifluoroacetate]
28 | 0.506 ± 0.06 | N#CC1CSCN1C(=O)CN(N)C1CCN(CC(=O)NC2CCCCC2)CC1 (centres unmarked) [compound 125, 3-[1-oxo-2-(1-(1-(2-oxo-2-cyclohexyl)aminoethyl)piperidin-4-yl)hydrazino]ethyl-4-cyanothiazoline, bis-trifluoroacetate]
29 | 0.485 ± 0.01 | Cc1cnc(C(=O)NC2CCC(N(N)CC(=O)N3CSCC3C#N)CC2)cn1 (centres unmarked) [compound 139, 3-[1-oxo-2-(1-(1-(5-methylpyrazine-2-ylcarbonyl)amino-4-cyclohexyl)) hydrazino]ethyl-4-cyanothiazolidine, tris-trifluoroacetate]
30 | 0.342 ± 0.035 | N#CC1CSCN1C(=O)CN(N)C1CCN(CC(=O)Nc2ccc(F)c(Cl)c2)CC1 (centres unmarked) [compound 128, 3-[1-oxo-2-(1-(1-(2-oxo-2-(3-chloro-4-fluoro-phenyl)aminoethyl)piperidine-4-yl))hydrazino]ethyl-4-cyanothiazolidine, bis-trifluoroacetate]
31 | 0.31 ± 0.05 | N#CC1CSCN1C(=O)CN(N)C12CC3CC(CC(C3)C1)C2 (centres unmarked) [Compound No. 75, 3-[1-Oxo-2-(1-(1-adamantanyl) hydrazino)]ethyl-4-cyanothiazolidine trifluoroacetate]
32 | 0.205 ± 0.011 | N#CC1CSCN1C(=O)CN(N)C1CCN(CC(=O)Nc2nccs2)CC1 (centres unmarked) [compound 134, 3-[1-oxo-2-(1-(1-(2-oxo-2-(thiazole-2-yl)-aminoethyl)piperidin-4-yl))hydrazino]ethyl-4-cyanothiazolidine, tris-trifluoroacetate]
